According to US10000739B2, “Method and culture medium for improving pluripotent stem cell differentiation inducing efficiency” (NATIONAL UNIVERSITY CORPORATION KUMAMOTO UNIVERSITY, priority 2010, dated 2018):
Where two headings read alike, the source gives them in different places.

Tests used:
[1] = test system: human iPS cells; experiment: Differentiation of human iPS cells into endoderm cells on mmcM15 cells, immunofluorescent staining for Sox17 and Oct3/4; format: cell-based; conditions: staining Day 10, vs control culture medium
Method: (§1) In performing a whole mount immunohistochemistry test, ES cells or iPS cells were placed on Nunc Theranox Colerslips 24-well type (Nunc). Cells were fixed at room temperature for 20 minutes in 4% paraformaldehyde, and washed sufficiently with 0.1% Tween-containing phosphate buffered saline (PBS-T). In PBS containing 1% TritonX-100, the cells were infiltrated at room for 10 minutes, and incubated for 1 hour in a blocking solution (×5 Blocking One, Nacalai Tesque), then, primary antibodies in the blocking solution were added to the sample, and incubated at 4° C. overnight. The sample was washed sufficiently with PBS-T, and mounted with PermaFluor Aqueous Mounting culture medium (IMMUNON). A confocal image was obtained using Leica Spectral Confocal Scanning System, TCS-SP2 (Leica).
(§2) Antibodies used for detection are as described below. Rabbitanti-α-fetoprotein (AFP, Dako), goat anti-albumin (Sigma), rabbit anti-Pdx1 (Chemicon), mouse anti-Oct3/4 (Santa Cruz), goat anti-Sox17 (R&D). As secondary antibodies, Alexa568-labeled goat anti-rabbit antibody and donkey anti-goat antibody, and Alexa488-labeled goat anti-mouse antibody and goat anti-rabbit antibody, donkey anti-goat antibody (Molecular Probes) were used. Cells were counter-stained with DAPI (Roche). The numbers of Sox17 and Oct3/4 positive cells were quantified using ImageXpress (Molecular Devices Corporation).
Differentiation of human iPS cells into endoderm cells was induced using endoderm differentiation culture media deprived of one amino acid for each culture medium. For induction of differentiation into endoderm cells, an endoderm differentiation inducing method using mmcM15 cells was used (see, non-patent document 6).
As the culture medium, the following media were used depending on the culturing period. From initiation of culturing (Day 0) until Day 6 or Day 8 of culturing, PRMI 1640 culture medium (Invitrogen) containing 50 units/ml penicillin and 50 μg/ml streptomycin (GIBCO), 2 mM L-glutamine (GIBCO), 100 μM β-mercaptoethanol (Sigma), non-essential amino acid (GIBCO), 100 ng/ml activin (R&D Systems) and B27 culture medium additive (Invitrogen) added was used as an endoderm differentiation culture medium.
From Day 6 or Day 8 until Day 10, amino acid-deprived culture media obtained by removing one amino acid from PRMI 1640 culture medium containing 50 units/ml penicillin and 50 μg/ml streptomycin, 2 mM L-glutamine, 100 μM β-mercaptoethanol, 100 ng/ml activin and B27 culture medium additive added, or a culture medium not deprived of an amino acid (control culture medium) was used as an endoderm differentiation culture medium.
Specifically, mmcM15 cells were seeded as supporting cells on a gelatin-coated 96-well plate. Human iPS cells were treated with Y27632 (10 μM) from 24 hours before seeding, and peeled using 0.25% trypsin. The peeled human iPS cells were seeded on mmcM15 cells at a cell concentration of 1×10^4 cells/well. The seeded human iPS cells were cultured for 24 hours under 37° C. and 5% CO2 in ES culture medium (ReproStem, ReproCell) containing 10 μM Y27632 and 5 ng/ml bFGF added. After 24 hours, cells were washed once with PBS, then, the culture medium was changed to an endoderm differentiation culture medium (Day 0). Until Day 6 or Day 8 of culturing, the endoderm differentiation culture medium was changed every other day, and human iPS cells were cultured under 37° C. and 5% CO2. On Day 6 or Day 8, the culture medium was changed to an amino acid-deprived culture medium or a control culture medium. Human iPS cells were cultured until Day 10 of culturing using an amino acid-deprived culture medium or a control culture medium. On Day 10, human iPS cells were subjected to immunofluorescent staining, and the proportions of positive cells for an endoderm differentiation marker (Sox17) and an undifferentiation marker (Oct3/4) were quantitatively analyzed. The proportion of the positive cells based on those stained with DAPI was calculated.

[2] = test system: human iPS cells; experiment: Addition of methionine metabolites to methionine-deprived or methyl donor-deprived culture medium, Oct3/4 and Sox17 positive cells counted; format: cell-based; conditions: for effect of reducing Oct3/4 positive cells owing to methionine deprivation: added to methionine-deprived culture medium (ΔMet) Day 8 to Day 10; for effect of reducing Oct3/4 positive cells: added to methyl donor-deprived culture medium (ΔMD) Day 8 to Day 10
Method: For investigating an influence of a methionine and methyl donor-deprived culture medium on differentiation into endoderm cells, a culture medium was deprived of methionine and methyl donors on Day 8 of differentiation, and cells were cultured until Day 10 and the numbers of Oct3/4 and Sox17 positive cells were evaluated by antibody staining. Specifically, mmcM15 cells were seeded as supporting cells on a gelatin-coated 96-well plate. Human iPS cells were treated with Y27632 (10 μM) from 24 hours before seeding, and peeled using 0.25% trypsin. The peeled human iPS cells were seeded on mmcM15 cells at a cell concentration of 1×10^4 cells/well. The seeded human iPS cells were cultured for 24 hours under 37° C. and 5% CO2 in ES culture medium containing Y27632 and bFGF added. After 24 hours, the culture medium was changed to an endoderm differentiation culture medium (Day 0). The endoderm differentiation culture medium was changed every other day and human iPS cells cultured under 37° C. and 5% CO2 from the day of initiation of culture (Day 0) to Day 8. On Day 8, the culture medium was changed to various culture media. One obtained by removing […]⋅folate⋅vitamin B12⋅betaine⋅choline from the culture medium was used as a methyl donor-deprived culture medium. Human iPS cells were cultured until Day 10 using various culture media, and Oct3/4 and Sox17 positive cells were counted.
It is known that methionine is metabolized to give cysteine (Cys). […] In the figure, δMD denotes a culture medium not containing methionine, folic acid, vitamin B12, betaine and choline as a methyl donor.

[3] = test system: human iPS cells
Method: as §1, §2
The methionine addition concentration between Day 8 and Day 10 was […], 0.1, 1.0, 5.0, 10.0, 20.0, 50.0, 100, 200 and 500 μM.
On Day 10, the culture medium was changed to a liver differentiation culture medium ([…] containing 10% KSR, 2000 mg/l D-glucose, 50 units/ml penicillin and 50 μg/ml streptomycin, 2 mM L-glutamine, 100 μM β-mercaptoethanol, […] human recombinant HGF and 1 μM dexamethasone (hereinafter, referred to as “2000KSR-DMEM culture medium”)), and cultured under 37° C. and 5% CO2 until Day 20. During Day 10 to Day 20, the culture medium was changed every other day. On Day 20, human iPs cells were subjected to immunofluorescent staining, and the proportions of Oct3/4 positive cells and AFP positive cells were compared for every methionine concentration.
On Day 10, the culture medium was changed to a liver differentiation culture medium (2000KSR-DMEM culture medium), and human iPS cells were cultured under 37° C. and 5% CO2 until Day 30. During Day 10 to Day 30, the culture medium was changed every other day.

[4] = test system: human iPS cells; remark: listed apart in the source
Method: For investigating an influence of a proline-added differentiation culture medium on differentiation into hepatocytes, differentiation of human iPS cells into liver precursor cells was induced using a liver differentiation culture medium containing proline added at a concentration of 1 mM.
On a gelatin-coated 96-well plate, mmcM15 cells were seeded as supporting cells. Human iPS cells were treated with Y27632 (10 μM) from 24 hours before seeding, and peeled using 0.25% trypsin. The peeled human iPS cells were seeded on mmcM15 cells at a cell concentration of 1×10^4 cells/well. The seeded human iPS cells were cultured for 24 hours under 37° C. and 5% CO2 in ES culture medium containing Y27632 and bFGF added. After 24 hours, the culture medium was changed to an endoderm differentiation culture medium (Day 0).
In the same manner as in Example 3, the endoderm differentiation culture medium was changed every other day and human iPS cells were cultured under 37° C. and 5% CO2, from the day of initiation of culturing (Day 0) to Day 8.
On Day 10, the culture medium was changed to a liver differentiation culture medium (2000KSR-DMEM culture medium, control culture medium) or Pro-containing 2000KSR-DMEM culture medium obtained by further adding 1 mM proline to a control culture medium, and human iPS cells were cultured until Day 19 under 37° C. and 5% CO2. During Day 10 to Day 19, the culture medium was changed every other day. On Day 19, human iPS cells were subjected to immunofluorescent staining with an anti-Oct3/4 antibody and an anti-AFP antibody.

[5] = amino acid-deprived endoderm differentiation culture medium Day 6 to Day 10
[6] = amino acid-deprived endoderm differentiation culture medium Day 8 to Day 10
[7] = methionine 0 μM to 0.1 μM Day 8 to Day 10, Day 20, FIG. 7C
[8] = methionine 1 μM to 20 μM Day 8 to Day 10, Day 20, FIG. 7C
[9] = methionine 50 μM or more Day 8 to Day 10, Day 20, FIG. 7C
[10] = Day 19, methionine deprivation Day 8 to Day 10 and/or 1 mM proline Day 10 to Day 19, vs control group

`N=C(N)NCCC[C@H](N)C(=O)O` [Arg, arginine] was tested, and the “Oct3/4 positive cell ratio” value [1, 5] was “decreased”, the “Oct3/4 positive cell ratio” value [1, 6] was “remarkably decreased” and the “Sox17 positive cell ratio” value [1, 6] was “increased”.
With `N[C@@H](CS)C(=O)O` [Cys, cysteine] the “Oct3/4 positive cell ratio” value [1, 5] was “decreased”, the “Oct3/4 positive cell ratio” value [1, 6] was “remarkably decreased” and the “Sox17 positive cell ratio” value [1, 6] was “increased”. For the same compound, the “effect of reducing Oct3/4 positive cells owing to methionine deprivation” value [2] was “has no influence”.
For `NC(=O)CC[C@H](N)C(=O)O` [Gln], the “Sox17 positive cell ratio” value [1, 6] was “increased”.
With `NCC(=O)O` [Gly] the “Sox17 positive cell ratio” value [1, 6] was “increased”.
`N[C@@H](CCS)C(=O)O` [Hcy, homocysteine] was tested, and the “effect of reducing Oct3/4 positive cells owing to methionine deprivation” value [2] was “the effect of reducing Oct3/4 positive cells is inhibited” and the “effect of reducing Oct3/4 positive cells” value [2] was “had not influence”.
With `N[C@@H](Cc1c[nH]cn1)C(=O)O` [His, histidine] the “Oct3/4 positive cell ratio” value [1, 5] was “decreased” and the “Oct3/4 positive cell ratio” value [1, 6] was “remarkably decreased”.
`CC[C@H](C)[C@H](N)C(=O)O` [Ile, isoleucine] was tested, and the “Oct3/4 positive cell ratio” value [1, 5] was “decreased” and the “Oct3/4 positive cell ratio” value [1, 6] was “remarkably decreased”.
With `CC(C)C[C@H](N)C(=O)O` [Leu, leucine] the “Oct3/4 positive cell ratio” value [1, 5] was “decreased”, the “Oct3/4 positive cell ratio” value [1, 6] was “remarkably decreased” and the “Sox17 positive cell ratio” value [1, 6] was “increased”.
In the case of `NCCCC[C@H](N)C(=O)O` [Lys, lysine], the “Oct3/4 positive cell ratio” value [1, 5] is reported as “decreased” and the “Oct3/4 positive cell ratio” value [1, 6] is reported as “remarkably decreased”.
In the case of `CSCC[C@H](N)C(=O)O` [Met, methionine], the “Oct3/4 positive cell ratio” value [1, 5] is reported as “decreased”, the “Oct3/4 positive cell ratio” value [1, 6] is reported as “remarkably decreased” and the “Sox17 positive cell ratio” value [1, 6] is reported as “increased”. For the same compound, the AFP positive cells [3, 7] was “present uniformly”, the “amount of remaining Oct3/4 positive cells” value [3, 7] was “small” and the “number of AFP positive cells” value [3, 8] was “decrease in the number of AFP positive cells is not recognized”. The “number of Oct3/4 positive cells” value [3, 8] was “increases slightly”, the “number of Oct3/4 positive cells” value [3, 9] was “remarkable increase” and the “number of Sox17 positive cells” value [3, 9] was “remarkable decrease”. The “proportion of Oct3/4 positive cells on Day 20” value ([3]; methionine added Day 8 to Day 10 at various concentrations up to 500 μM, then liver differentiation culture medium) was “increased depending on the methionine concentration”, the “proportion of AFP positive cells” value ([3]; methionine concentrations of 50 μM or more Day 8 to Day 10, Day 20, FIG. 7B) was “decreased” and the “effect of reducing Oct3/4 positive cells owing to methionine deprivation” value [2] was “the effect of reducing Oct3/4 positive cells is inhibited”. For the same compound, the “effect of reducing Oct3/4 positive cells” value [2] was “inhibited the effect of reducing Oct3/4 positive cells”.
For `N[C@@H](Cc1ccccc1)C(=O)O` [Phe, phenylalanine], the “Oct3/4 positive cell ratio” value [1, 5] was “decreased” and the “Oct3/4 positive cell ratio” value [1, 6] was “remarkably decreased”.
`Nc1ncnc2c1ncn2[C@@H]1O[C@H](CSCC[C@H](N)C(=O)O)[C@@H](O)[C@H]1O` [SAH, S-adenosylhomocystein] was tested, and the “effect of reducing Oct3/4 positive cells owing to methionine deprivation” value [2] was “the effect of reducing Oct3/4 positive cells is inhibited” and the “effect of reducing Oct3/4 positive cells” value [2] was “had not influence”.
For `C[S+](CC[C@H](N)C(=O)O)C[C@H]1O[C@@H](n2cnc3c(N)ncnc32)[C@H](O)[C@@H]1O` (stereo partly shown) [SAM, S-adenosylmethionine], the “effect of reducing Oct3/4 positive cells owing to methionine deprivation” value [2] was “the effect of reducing Oct3/4 positive cells is inhibited” and the “effect of reducing Oct3/4 positive cells” value [2] was “inhibited the effect of reducing Oct3/4 positive cells”.
In the case of `N[C@@H](CO)C(=O)O` [Ser], the “Sox17 positive cell ratio” value [1, 6] is reported as “increased”.
With `C[C@@H](O)[C@H](N)C(=O)O` [Thr, threonine] the “Oct3/4 positive cell ratio” value [1, 5] was “decreased” and the “Oct3/4 positive cell ratio” value [1, 6] was “remarkably decreased”.
In the case of `N[C@@H](Cc1c[nH]c2ccccc12)C(=O)O` [Trp, tryptophan], the “Oct3/4 positive cell ratio” value [1, 5] is reported as “decreased” and the “Oct3/4 positive cell ratio” value [1, 6] is reported as “remarkably decreased”.
For `N[C@@H](Cc1ccc(O)cc1)C(=O)O` [Tyr, tyrosine], the “Oct3/4 positive cell ratio” value [1, 5] was “decreased”, the “Oct3/4 positive cell ratio” value [1, 6] was “remarkably decreased” and the “Sox17 positive cell ratio” value [1, 6] was “without change”.
`CC(C)[C@H](N)C(=O)O` [Val, valine] was tested, and the “Oct3/4 positive cell ratio” value [1, 5] was “decreased” and the “Oct3/4 positive cell ratio” value [1, 6] was “remarkably decreased”.
In the case of `O=C(O)[C@@H]1CCCN1` [proline], the AFP positive cells [4, 10] is reported as “larger”, the Oct3/4 positive cells [4, 10] is reported as “decreased” and the “AFP and Oct3/4 positive cells” value ([4]; proline 10 mM) is reported as “the same result as in the case of 1 mM addition”.
